Data published in patent publication US8702959B2, “System and method for detecting a substance in liquid” (priority 2009, dated 2014).

Columns and labels:
[1] = tested on: E. coli reporter strain panel
Experimental: The AP activity was measured electrochemically at potential […] by making use of pAPP in a point assay after induction period. The determined SOS-induction factors for each concentration level are plotted against each other.
To increase the capabilities of the reporter cells as genotoxicity bioreporters, a series of knock-out mutations was introduced to the E. coli RFM443's genome. The genes that were selected to be deleted are genes affiliated with DNA repair mechanisms (Nucleotide Exicision Repair, uvrA; DNA Pol V, umuD) and a structural gene that can influence cell permeability (lipopolysaccharide, rfaE). […] The deletion mutations in uvrA and umuD were transferred by P1 transduction. […] From each gene deletion experiment, eight Km^R colonies were chosen and checked for the correct mutation structure by PCR using a combination of locus- and kanamycin-specific primers (Table 1). PCR fragments with the right size of both junctions were sent to sequencing. Sequences were indentified using BLAST program operating on the default options querying the NCBI nucleotide collection database. The construction of double or triple mutants was obtained by the elimination of the resistance using a helper plasmid expressing the FLP recombinase, which acts on the FRT (FLP recognition target) sites flanking the resistance gene. Using the methods described above, a set of mutated reporter strains was constructed as detailed in Table 2. Strains dedicated to harbor the phoA reporter gene were also engineered to contain a deletion in the chromosomal phoA gene to eliminate the possibility of native PhoA activity.

[2] = tested on: Salmonella typhimurium TA1535 pSK1002 cells; assay: Genotoxicity bio-detection of IQ with Salmonella typhimurium umuC'-'lacZ reporter, amperometry on micro-chip; assay type: cell-based
Experimental: Salmonella typhimurium TA1535 pSK1002 [Y. Oda et al., Mutat. Res. 147 (1985) 219] cells were used for the IQ bio-detection. The construction of the pSK1002 plasmid was reported in H. Shinagawa et al. Gene. 23 (1983) 167, which is hereby incorporated by reference in its entirety. The exposition of bacteria was done according to Reifferscheid et al. [Reifferscheid et al., Mutat. Res. 253 (1991) 215]. An over night culture of the bacteria was refreshed in 20 ml TGA-medium (1:10 dilution of bacteria) and grown for further 2 h (37° C., 150 rpm). Prior to exposition the optical density (λ=595 nm) of the bacterial culture was adjusted to 0.44 by dilution with TGA medium. […] The OD595 of the exposed mixture was measured after an incubation time of 2 h at 37° C. and 900 rpm in shaking conditions.
The activity of the reporter enzyme β-galactosidase in the induced bacteria was measured by making use of the substrate para-Aminophenyl β-D-galactopyranoside (pAPG, 0.5 mM final concentration, Sigma). Shortly after the addition of pAPG, aliquots of 3 μl were introduced into the electrochemical microchambers and a constant potential of 300 mV vs. Ag/AgCl was applied on the electrochemical chamber in order to quantify the enzymatically generated product pAP. The setup was connected in such a way that the output current was monitored (i.e. amperometry measurement).

[3] = tested on: Escherichia coli RFM443/pBR2TTS cells harboring a sulA::phoA fusion; assay type: cell-based
Experimental: Escherichia coli RFM443/pBR2TTS cells harboring a sulA::phoA fusion were grown overnight in MOPS growth medium containing 0.1 mg/ml ampicillin with shaking conditions at 37° C. The overnight culture was diluted ×1/100, regrown to an optical density of 0.2 (600 nm). Finally NA (FW 254.22, Sigma) was added to a final concentration of 10 μg/ml. Following further incubation at various times of 0, 60, 90, or 120 minutes under similar conditions, aliquots of 3 μl were introduced into the electrochemical microchambers. Shortly after applying a constant potential of 300 mV vs. Ag/AgCl in the electrochemical chamber, the enzymatic substrate para-Aminophenyl phosphate (pAPP, MW 211.09, diagnoSwiss) was added reaching a concentration of 0.8 mg/ml.
Control samples were prepared with the addition of growth medium instead of NA or pAPP to the incubation stage in order to verify the influence of NA on the induction of the bacteria and pAPP on the generated bio-electrochemical response.

OO [H2O2, hydrogen peroxide]
response of the reporter to model genotoxicants ([1]; AP activity measured electrochemically at potential 0.3 mV with pAPP, point assay after induction, FIG. 14): responsive
response of the uvrA mutant reporter strain ([1]; uvrA mutant, FIG. 14): elevated response

Cn1c(N)nc2c3cccnc3ccc21 [IQ, 2-Amino-3-methylimidazo[4,5-f]quinoline]
response of the reporter strain mutated in uvrA and rfaE genes ([1]; following metabolic activation with lyophilized liver S9 fraction, compared with umu-test reporter strain): responded
dependence of the differential slope of the electrochemical current on concentration ([2]; IQ 5, 1.25, 0.31 μM activated with S9-fraction, 2 h, pAPG 0.5 mM, 300 mV vs. Ag/AgCl, FIG. 11A): more rapidly increasing electrochemical current characteristics
detection by the prototype biosensor ([2]; microfluidic whole cell prototype biosensor, genotoxic material): successfully detected

CCn1cc(C(=O)O)c(=O)c2ccc(C)nc21 [NA, Nalidixic acid]
chrono-amperometric response of E. coli bacteria in the presence of toxicant after pAPP was added ([3]; NA 10 μg/ml, 1 hr incubation, pAPP 0.8 mg/ml, 300 mV vs. Ag/AgCl, FIG. 10A): increasing electrochemical current
electrochemical current of induced bacteria compared with non-induced bacteria, pAPP added to both ([3]; NA 10 μg/ml, 1 hr incubation, pAPP 0.8 mg/ml, FIG. 10A): more rapidly increasing electrochemical current than non-induced bacteria
effect of induction time on the slope of the detected electrochemical current ([3]; NA 10 μg/ml, induction 0, 60, 90 or 120 minutes, FIGS. 10B-C): For longer induction times the current increased more rapidly
detection by the prototype biosensor ([3]; microfluidic whole cell prototype biosensor, model toxicant): successfully detected
response of the ΔrfaE reporter strains ([1]; ΔrfaE mutants, FIG. 14): respond to lower concentrations
